Patent EP4692071A1, “PHOTOCHROMIC COMPOUND, NAPHTHOL DERIVATIVE, CURABLE COMPOSITION, OPTICAL ARTICLE, LENS, AND EYEGLASS” (TOKUYAMA CORPORATION, priority 2023, dated 2024)
One block for each compound: values may come before it.

What was measured:
Format in all cases: physicochemical
[1] = High-temperature color development rate (A35/A23×100), temperature dependency; settings: for Temperature change rate (%): photochromic laminate by coating method, comparative compounds, corresponds to A35/A23×100
Summary of the method: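 Color optical density was taken as the absorbance after 240 seconds of light irradiation, ε(240), minus the absorbance without irradiation, ε(0), at the absorption maximum. It was measured at 23°C (A23) and at 35°C (A35), and the ratio A35/A23×100 served as the high-temperature color development rate, showing temperature dependency.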

[2] = 35°C color optical density (A35): absorbancy difference ε(240)-ε(0) after 240 s light irradiation at 35°C; settings: photochromic laminate by coating method, comparative compounds, 240 s irradiation
Experimental: (§1) • [1] Maximum Absorption Wavelength (λmax): The maximum absorption wavelength after color development, measured using a spectrophotometer (instantaneous multichannel photodetector MCPD3000) manufactured by Otsuka Electronics Co., Ltd. was used as an indicator for the color tone during the color development. • [2] 23°C Color Optical Density (A23): A difference between an absorbancy measured after light irradiation at 23°C for 240 seconds {ε(240)} and an absorbancy without light irradiation ε(0) at the maximum absorption wavelength was used as an indicator for the color optical density. […] 35°C Color Optical Density (A35): A difference between an absorbancy measured after light irradiation at 35°C for 240 seconds {ε(240)} and an absorbancy without light irradiation ε(0) at the first and second absorption wavelengths was used as an indicator for the color optical density. […] 23°C color fading half-life [τ1/2 (sec.)]: A time required for the absorbancy of the sample at the maximum absorption wavelength to decrease to 1/2 of {ε(240)-ε(0)} when the light irradiation is terminated after the light irradiation at 23°C for 240 seconds, was used as an indicator for the color fading speed. The shorter this time, the higher the color fading speed. • [6] Residual rate (A90/A0×100): The obtained photochromic plastic lens was subjected to accelerated deterioration using a xenon weather meter X25 manufactured by Suga Test Instruments Co., Ltd. for 90 hours. Subsequently, the color optical density was evaluated before and after the test, then a color optical density before the test (A0) and a color optical density after the test (A90) were measured, and a ratio (A90/A0) was defined as a residual rate. The residual rate was used as an indicator for a color developing durability. The higher the residual rate, the higher the color developing durability.

[3] = 23°C color optical density (A23): absorbancy difference ε(240)-ε(0) after 240 s light irradiation at 23°C; settings: 240 s irradiation; for A23 (-): binder sheet (binder method); for 23°C color optical density (-): photochromic laminate by coating method, comparative compounds
Experimental: as §1

[4] = Maximum absorption wavelength (λmax) after color development, spectrophotometer MCPD3000; settings: for Maximum absorption wavelength: after color development
Summary of the method: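 Read-out: absorbance at λmax, multichannel photodetector spectrophotometer. Colour density = ε(240) − ε(0), 240 s light, 23°C. τ1/2 = time for ε(240) − ε(0) to halve after light off. Residual rate compares density before and after 90 h xenon weathering.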

[5] = Residual rate (A90/A0×100) after 90 h accelerated deterioration in xenon weather meter X25, color developing durability; settings: for Residual rate: after 90 h accelerated deterioration; for Residual rate (%): xenon weather meter 90 hours
Summary of the method: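 Colour tone, density and fading speed are measured on photochromic plastic lenses by spectrophotometry at λmax after 240 s irradiation at 23°C. Durability is expressed as the ratio of post-ageing to pre-ageing colour density, with ageing done for 90 h in a xenon weather meter.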

[6] = binder sheet (binder method), absorption peak at 474 nm
[7] = binder sheet (binder method), absorption peak at 566 nm
[8] = binder sheet (binder method), at 474 nm absorption maximum
[9] = binder sheet (binder method), at 566 nm absorption maximum
[10] = photochromic cured product, thickness 1 mm (kneading method), absorption band at 476 nm
[11] = photochromic cured product, thickness 1 mm (kneading method), absorption band at 573 nm
[12] = photochromic laminate prepared by coating method, absorption band at 474 nm
[13] = photochromic laminate prepared by coating method, absorption band at 567 nm
[14] = photochromic laminate by coating method
[15] = photochromic laminate prepared by coating method, absorption band at 449 nm
[16] = photochromic laminate prepared by coating method, absorption band at 569 nm

A35/A23 *100 [1, 6]: 69%
A35/A23 *100 [1, 7]: 68%
A35/A23 *100 (%) [1, 8]: 69%
A35/A23 *100 (%) [1, 9]: 68%
A35/A23 *100 (%) ([1]; cured product by kneading method, 1 mm): 70%
A35/A23 *100 ([1]; photochromic cured product, thickness 1 mm (kneading method)): 70%
Temperature change rate (%) [1]: 69%
A35/A23 *100 ([1]; photochromic laminate prepared by coating method): 69%
35°C color optical density (-) ([2]; absorption band at 474 nm): 1.14 -
35°C color optical density (-) ([2]; absorption band at 567 nm): 0.57 -
A23 (-) ([3]; at 474 nm absorption maximum): 1.69 -
A23 (-) ([3]; at 566 nm absorption maximum): 0.85 -
23°C color optical density (-) ([3]; absorption band at 474 nm): 1.65 -
23°C color optical density (-) ([3]; absorption band at 567 nm): 0.83 -
Maximum absorption wavelength (nm) ([4]; binder sheet (binder method), urethaneurea resin photochromic layer between polycarbonate sheets, 0.25 mmol per 100 parts by mass resin, at 474 nm absorption maximum): 474 nm
Maximum absorption wavelength (nm) ([4]; binder sheet (binder method), urethaneurea resin photochromic layer between polycarbonate sheets, 0.25 mmol per 100 parts by mass resin, at 566 nm absorption maximum): 566 nm
Maximum absorption wavelength [4, 6]: 474 nm
Maximum absorption wavelength [4, 7]: 566 nm
Maximum absorption wavelength (nm) ([4]; photochromic cured product by kneading method, 1 mm thick thiourethane, 0.106 mmol per 100 g monomers, absorption peak at 476 nm): 476 nm
Maximum absorption wavelength (nm) ([4]; photochromic cured product by kneading method, 1 mm thick thiourethane, 0.106 mmol per 100 g monomers, absorption peak at 573 nm): 573 nm
Maximum absorption wavelength [4, 10]: 476 nm
Maximum absorption wavelength [4, 11]: 573 nm
Maximum absorption wavelength (nm) ([4]; photochromic laminate by coating method, 40 µm photochromic layer on thiourethane lens, 0.25 mmol compound per 100 g monomers, absorption band at 474 nm): 474 nm
Maximum absorption wavelength (nm) ([4]; photochromic laminate by coating method, 40 µm photochromic layer on thiourethane lens, 0.25 mmol compound per 100 g monomers, absorption band at 567 nm): 567 nm
Maximum absorption wavelength [4, 12]: 474 nm
Maximum absorption wavelength [4, 13]: 567 nm
Residual rate [5, 6]: 70%
Residual rate [5, 7]: 76%
Residual rate (%) [5, 8]: 70%
Residual rate (%) [5, 9]: 76%
Residual rate (%) ([5]; cured product by kneading method, 1 mm, absorption peak at 476 nm): 60%
Residual rate (%) ([5]; cured product by kneading method, 1 mm, absorption peak at 573 nm): 65%
Residual rate [5, 10]: 60%
Residual rate [5, 11]: 65%
Residual rate (%) ([5]; photochromic laminate by coating method, absorption band at 474 nm): 53%
Residual rate (%) ([5]; photochromic laminate by coating method, absorption band at 567 nm): 57%
Residual rate [5, 12]: 53%
Residual rate [5, 13]: 57%
Compound: COc1ccc(C2(c3ccc(OC)cc3)C=Cc3c4c(c5cc(N6CCOCC6)c(OC)cc5c3O2)-c2ccccc2C4(C)C)cc1 [Formula (A), reference compound]

Temperature change rate (%) [1]: 68%
35°C color optical density (-) ([2]; absorption band at 463 nm): 0.88 -
35°C color optical density (-) ([2]; absorption band at 573 nm): 0.62 -
23°C color optical density (-) ([3]; absorption band at 463 nm): 1.30 -
23°C color optical density (-) ([3]; absorption band at 573 nm): 0.90 -
Maximum absorption wavelength (nm) ([4]; photochromic laminate by coating method, 40 µm photochromic layer on thiourethane lens, 0.25 mmol compound per 100 g monomers, absorption band at 463 nm): 463 nm
Maximum absorption wavelength (nm) ([4]; photochromic laminate by coating method, 40 µm photochromic layer on thiourethane lens, 0.25 mmol compound per 100 g monomers, absorption band at 573 nm): 573 nm
Residual rate (%) [5, 14]: 68%
Compound: CCCCOc1ccc(C2(c3ccc(OCCCC)cc3)C=Cc3c4c(c5cc(NC(=O)c6ccccc6)c(OC)cc5c3O2)-c2ccccc2C4(C)C)cc1 [Formula (B), reference compound]

Temperature change rate (%) [1]: 65%
35°C color optical density (-) ([2]; absorption band at 469 nm): 0.78 -
35°C color optical density (-) ([2]; absorption band at 570 nm): 0.50 -
23°C color optical density (-) ([3]; absorption band at 469 nm): 1.20 -
23°C color optical density (-) ([3]; absorption band at 570 nm): 0.77 -
Maximum absorption wavelength (nm) ([4]; photochromic laminate by coating method, 40 µm photochromic layer on thiourethane lens, 0.25 mmol compound per 100 g monomers, absorption band at 469 nm): 469 nm
Maximum absorption wavelength (nm) ([4]; photochromic laminate by coating method, 40 µm photochromic layer on thiourethane lens, 0.25 mmol compound per 100 g monomers, absorption band at 570 nm): 570 nm
Residual rate (%) [5, 14]: 73%
Compound: COc1ccc(C2(c3ccc(OC)cc3)C=Cc3c4c(c5cc(Sc6c(C)cccc6C)c(OC)cc5c3O2)-c2ccccc2C4(C)C)cc1 [Formula (C), reference compound]

Temperature change rate (%) [1]: 63%
A35/A23 *100 [1, 15]: 64%
A35/A23 *100 [1, 16]: 63%
35°C color optical density (-) ([2]; absorption band at 449 nm): 0.44 -
35°C color optical density (-) ([2]; absorption band at 569 nm): 0.55 -
23°C color optical density (-) ([3]; absorption band at 449 nm): 0.69 -
23°C color optical density (-) ([3]; absorption band at 569 nm): 0.87 -
Maximum absorption wavelength (nm) ([4]; photochromic laminate by coating method, 40 µm photochromic layer on thiourethane lens, 0.25 mmol compound per 100 g monomers, absorption band at 449 nm): 449 nm
Maximum absorption wavelength (nm) ([4]; photochromic laminate by coating method, 40 µm photochromic layer on thiourethane lens, 0.25 mmol compound per 100 g monomers, absorption band at 569 nm): 569 nm
Maximum absorption wavelength [4, 15]: 449 nm
Maximum absorption wavelength [4, 16]: 569 nm
Residual rate (%) ([5]; photochromic laminate by coating method, absorption band at 449 nm): 74%
Residual rate (%) ([5]; photochromic laminate by coating method, absorption band at 569 nm): 73%
Residual rate [5, 15]: 74%
Residual rate [5, 16]: 73%
Compound: COc1ccc(C2(c3ccc(OC)cc3)C=Cc3c4c(c5ccc(OC)cc5c3O2)-c2ccccc2C4(C)C)cc1 [Formula (D), reference compound]
